The test system of data set [1] is L1210. In words: Cytotoxicity against mouse L1210 cells assessed as growth inhibition after 40 hrs. Type of data set: functional.
For data set [2], the system named is L1210. The data set can be described thus: Cytotoxicity against mouse L1210 cells assessed as growth inhibition at 10^-6 M after 40 hrs relative to control. The format is functional. As to conditions: L1210, 40 h, read-out: GI.
For data set [3], the system named is L1210. In words: Cytotoxicity against mouse L1210 cells assessed as growth inhibition at 10^-5 M after 40 hrs relative to control. Type of data set: functional. As to conditions: L1210, 40 h, read-out: GI.
Data set [4] deals with L1210. In words: Antitumor activity against mouse L1210 cells allografted in mouse. The format is functional, cell-based.
Data set [5] has as its system L1210. The data set can be described thus: Cytotoxicity against mouse L1210 cells assessed as growth inhibition at 10^-4 M after 40 hrs relative to control. Type of data set: functional. To be noted: L1210, 40 h, read-out: GI.
The subject of the next data set is P388. The data set can be described thus: Antitumor activity against mouse P388 cells allografted in mouse assessed as tumor growth inhibition at 25 mg/kg relative to control. Type of data set: functional.
The species entered for another data set is Mus musculus. The data set can be described thus: Toxicity in mouse allografted with mouse P388 cells. Type of data set: organism-based.

The source made the active and inactive calls. The calls are words filed in the database; no cut-off is given here.

For `CCOC(=O)N1[C@@H]2O[C@@H](C(COC(C)=O)=C2COC(C)=O)N1C(=O)OCC`, the ID50 in the data set with L1210 [1] is on record as 3 ×10⁻⁵ M. The inhibition of growth at 1 µM in the data set with L1210 [2] came to 13%. Moreover, in the data set on L1210 [3], the inhibition of growth at 10 µM was 41%. Besides, in the data set with L1210 [4], the outcome was inactive. Also, the inhibition of growth at 100 µM in the data set on L1210 [5] amounted to 78%.

Take `CC(=O)OCC1=C(COC(C)=O)[C@@H]2O[C@H]1[C@H](OC(C)=O)[C@@H]2OC(C)=O`: the ID50 in the data set with L1210 [1] is greater than 1 ×10⁻⁴ M. Besides, the inhibition of growth at 1 µM in the data set on L1210 [2] is 1%. In addition, the inhibition of growth at 10 µM in the data set on L1210 [3] came out at 19%. In addition, the outcome in the data set on L1210 [4] was inactive. In the data set with L1210 [5], the inhibition of growth at 100 µM is 34%.

With `CCCCNC(=O)OCC1=C(COC(=O)NCCCC)[C@@H]2O[C@H]1C(C(=O)OC)=C2C(=O)OC`, in the data set on P388, the T/C stood at 123%.

Turning to `CC(=O)OCC1=C(COC(C)=O)[C@@H]2O[C@H]1[C@H](O)[C@@H]2O`, the ID50 with L1210 [1] is greater than 1 ×10⁻⁴ M. In the data set with L1210 [3], the inhibition of growth at 10 µM was determined as 3%. Also, the outcome in the data set with L1210 [4] was inactive. In addition, the inhibition of growth at 100 µM with L1210 [5] came to 41%.

In the case of `COC(=O)C1=C(C(=O)OC)[C@H]2O[C@@H]1C(COC(C)=O)=C2COC(C)=O`, the IC50 in the data set with L1210 [1] (Mus musculus, L1210, 40 h, read-out: ID50 (the source's name)) is less than 1000 nM. In the data set on L1210 [2], the inhibition of growth at 1 µM came out at 93%. Also, in the data set with L1210 [3], the inhibition of growth at 10 µM worked out at 93%. In the data set on L1210 [4], the outcome was inactive. Besides, in the data set on L1210 [5], the inhibition of growth at 100 µM was 93%.

Turning to `CNC(=O)OCC1=C(COC(=O)NC)[C@@H]2O[C@H]1C(C(=O)OC)=C2C(=O)OC`, the Activity result in the data set listed under Mus musculus is reported as “Toxic”.

By T/C is commonly meant the ratio of treated to control.

The values above are taken from ChEMBL document CHEMBL3244299, “Allylic esters as potential antitumor agents. Derivatives and analogues of 2,3-bis(hydroxymethyl)-7-oxabicyclo[2.2.1]hept-2-ene” (J Med Chem, 1979).
